Legend:
[1] = Induction of anti-CD3/CD28 antibodies-stimulated human T cell activation at 10 uM assessed fold increase in GM-CSF secretion measured by ELISA assay; format: functional, T cell line
[2] = Induction of activation of human CD56+ CD3- NK cells co-cultured with human K562 cells in 5:1 ratio and assessed as increase in TNF-alpha secretion at 10 uM measured by ELISA assay; format: functional, Natural killer cell
[3] = Induction of anti-CD3 antibodies-stimulated human T cell activation at 10 uM assessed fold increase in TNF-alpha secretion measured by ELISA assay; format: functional, T cell line; also: reference of the scale not given here
[4] = Induction of activation of human CD56+ CD3- NK cells co-cultured with human K562 cells in 1:1 ratio and assessed as increase in IFN-gamma secretion at 1 uM measured by ELISA assay; format: functional, Natural killer cell
[5] = Induction of activation of human CD56+ CD3- NK cells co-cultured with human K562 cells in 5:1 ratio and assessed as increase in MIP1beta secretion at 10 uM measured by ELISA assay; format: functional, Natural killer cell
[6] = Induction of activation of human CD56+ CD3- NK cells co-cultured with human K562 cells in 5:1 ratio and assessed as increase in TNF-alpha secretion at 1 uM measured by ELISA assay; format: functional, Natural killer cell
[7] = Induction of anti-CD3/CD28 antibodies-stimulated human CD8+ T cell activation at 10 uM assessed fold increase in CD69 expression measured by flow cytometry analysis; format: functional, T cell line
[8] = Induction of activation of human CD56+ CD3- NK cells co-cultured with human K562 cells in 1:1 ratio and assessed as increase in IFN-gamma secretion at 0.625 uM measured by ELISA assay; format: functional, Natural killer cell
[9] = Induction of anti-CD3/CD28 antibodies-stimulated human T cell activation at 4 uM assessed fold increase in CD25 expression measured by ELISA assay; format: functional, T cell line
[10] = molecular target: T1, E3 ubiquitin-protein ligase CBL-B (Homo sapiens, UniProt Q13191); test: Inhibition of N-terminal Avi-tagged human CBL-B (36 to 427 residues) incubated with 60 nM Src kinase for 1.5 hrs followed by incubation with fluorescently labeled UbcH5B-Ub for 1 hr and measured by TR-FRET assay; format: single protein
[11] = Induction of anti-CD3 antibodies-stimulated human exhausted CD4+ T cell activation assessed fold increase in CTLA4 expression measured by flow cytometry analysis; format: functional, T cell line; also: reference of the scale not given here
[12] = Induction of anti-CD3 antibodies-stimulated human exhausted T cell activation assessed fold increase in GM-CSF secretion measured by ELISA assay; format: functional, T cell line; also: reference of the scale not given here
[13] = Induction of allogenic human T cell activation at 3 uM assessed fold increase in cell proliferation; format: functional, T cell line
[14] = Induction of anti-CD3/CD28 antibodies-stimulated human T cell activation at 1.11 uM assessed fold increase in TNF-alpha secretion measured by ELISA assay; format: functional, T cell line
[15] = Induction of anti-CD3/CD28 antibodies-stimulated human T cell activation at 0.3 uM assessed fold increase in IL-2 secretion measured by ELISA assay; format: functional, T cell line
[16] = Induction of anti-CD3 antibodies-stimulated human exhausted T cell activation assessed fold increase in IFN-gamma secretion measured by ELISA assay; format: functional, T cell line; also: reference of the scale not given here
[17] = Induction of anti-CD3/CD28 antibodies-stimulated human T cell activation at 1 uM assessed fold increase in CD25 expression measured by ELISA assay; format: functional, T cell line
[18] = Induction of anti-CD3/CD28 antibodies-stimulated human T cell activation at 1.11 uM assessed fold increase in GM-CSF secretion measured by ELISA assay; format: functional, T cell line
[19] = Induction of activation of human CD56+ CD3- NK cells co-cultured with human K562 cells in 1:1 ratio and assessed as increase in MIP1beta secretion at 1 uM measured by ELISA assay; format: functional, Natural killer cell
[20] = Induction of anti-CD3 antibodies-stimulated human CD8+ T cell activation at 1.11 uM assessed fold increase in cell proliferation measured by flow cytometry analysis; format: functional, T cell line; also: reference of the scale not given here
[21] = Induction of activation of human CD56+ CD3- NK cells co-cultured with human K562 cells in 1:1 ratio and assessed as increase in TNF-alpha secretion at 1 uM measured by ELISA assay; format: functional, Natural killer cell
[22] = Induction of activation of human CD56+ CD3- NK cells co-cultured with human K562 cells in 1:1 ratio and assessed as increase in MIP1beta secretion at 10 uM measured by ELISA assay; format: functional, Natural killer cell
[23] = Induction of activation of human CD56+ CD3- NK cells co-cultured with human K562 cells in 5:1 ratio and assessed as increase in MIP1beta secretion at 1 uM measured by ELISA assay; format: functional, Natural killer cell
[24] = Induction of activation of human CD56+ CD3- NK cells co-cultured with human K562 cells in 5:1 ratio and assessed as increase in IFN-gamma secretion at 10 uM measured by ELISA assay; format: functional, Natural killer cell
[25] = Induction of anti-CD3/CD28 antibodies-stimulated human T cell activation at 1 uM assessed fold increase in IL-2 secretion measured by ELISA assay; format: functional, T cell line
[26] = Induction of activation of human CD56+ CD3- NK cells co-cultured with human K562 cells in 5:1 ratio and assessed as increase in IFN-gamma secretion at 1 uM measured by ELISA assay; format: functional, Natural killer cell
[27] = Induction of anti-CD3 antibodies-stimulated human CD8+ T cell activation in immunocompetent mouse assessed fold increase in CD25 expression at 90 mg/kg, po administered twice a day; format: functional; also: reference of the scale not given here
[28] = Induction of anti-CD3 antibodies-stimulated human CD4+ T cell activation in immunocompetent mouse assessed fold increase in CD25 expression at 90 mg/kg, ip administered twice a day; format: functional; also: reference of the scale not given here
[29] = Induction of anti-CD3 antibodies-stimulated human CD8+ T cell activation in immunocompetent mouse assessed fold increase in CD25 expression at 135 mg/kg, po administered twice a day; format: functional; also: reference of the scale not given here
[30] = molecular target: T1, E3 ubiquitin-protein ligase CBL-B; test: Binding affinity towards N-terminal biotinylated Avi-tagged human CBL-B (36 to 427 residues) measured by surface plasmon resonance assay
[31] = Induction of anti-CD3 antibodies-stimulated human CD4+ T cell activation in immunocompetent mouse assessed fold increase in CD25 expression at 180 mg/kg, po administered twice a day; format: functional; also: reference of the scale not given here
[32] = Induction of anti-CD3 antibodies-stimulated human CD4+ T cell activation in immunocompetent mouse assessed fold increase in CD25 expression at 90 mg/kg, po administered twice a day; format: functional; also: reference of the scale not given here
[33] = Induction of anti-CD3 antibodies-stimulated human CD8+ T cell activation in immunocompetent mouse assessed fold increase in CD25 expression at 180 mg/kg, po administered twice a day; format: functional; also: reference of the scale not given here
[34] = Induction of anti-CD3 antibodies-stimulated human CD4+ T cell activation in immunocompetent mouse assessed fold increase in CD25 expression at 135 mg/kg, po administered twice a day; format: functional; also: reference of the scale not given here
[35] = Induction of anti-CD3 antibodies-stimulated human CD8+ T cell activation in immunocompetent mouse assessed fold increase in CD25 expression at 90 mg/kg, ip administered thrice a day; format: functional; also: reference of the scale not given here

T1 sequence (Q13191 whole entry, the tested form may be a part): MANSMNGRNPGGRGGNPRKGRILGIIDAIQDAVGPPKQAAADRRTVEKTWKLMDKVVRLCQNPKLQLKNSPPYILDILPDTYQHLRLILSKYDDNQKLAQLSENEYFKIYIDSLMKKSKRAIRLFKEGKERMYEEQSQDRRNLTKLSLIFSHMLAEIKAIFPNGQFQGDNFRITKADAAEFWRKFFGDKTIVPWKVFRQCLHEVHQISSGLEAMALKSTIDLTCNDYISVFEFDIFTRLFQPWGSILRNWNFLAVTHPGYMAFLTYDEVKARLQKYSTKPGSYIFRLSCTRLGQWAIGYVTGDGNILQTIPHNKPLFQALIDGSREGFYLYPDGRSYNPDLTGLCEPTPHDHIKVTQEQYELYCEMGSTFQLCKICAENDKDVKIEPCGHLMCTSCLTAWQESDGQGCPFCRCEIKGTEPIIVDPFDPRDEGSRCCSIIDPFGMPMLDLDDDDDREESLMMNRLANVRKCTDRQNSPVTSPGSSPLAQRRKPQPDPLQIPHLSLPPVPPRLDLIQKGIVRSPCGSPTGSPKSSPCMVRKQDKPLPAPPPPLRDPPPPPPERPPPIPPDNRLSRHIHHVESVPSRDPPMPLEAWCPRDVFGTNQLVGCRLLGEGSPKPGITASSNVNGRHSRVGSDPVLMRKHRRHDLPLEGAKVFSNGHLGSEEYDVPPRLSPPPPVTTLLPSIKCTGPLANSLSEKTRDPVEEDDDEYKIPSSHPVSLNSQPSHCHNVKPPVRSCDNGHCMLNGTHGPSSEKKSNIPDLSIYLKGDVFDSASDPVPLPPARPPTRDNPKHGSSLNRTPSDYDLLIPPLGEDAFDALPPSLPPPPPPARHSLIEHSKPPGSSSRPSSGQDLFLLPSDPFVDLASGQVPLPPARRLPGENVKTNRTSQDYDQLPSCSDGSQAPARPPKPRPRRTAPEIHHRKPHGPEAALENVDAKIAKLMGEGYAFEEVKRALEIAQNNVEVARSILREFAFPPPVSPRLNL

Row | Compound | fold change (FC) [1] | fold change (FC) [2] | fold change (FC) [3] | fold change (FC) [4] | fold change (FC) [5] | fold change (FC) [6] | fold change (FC) [7] | fold change (FC) [8] | fold change (FC) [9] | IC50 [10] [nM] | fold change (FC) [11] | fold change (FC) [12] | fold change (FC) [13] | fold change (FC) [14] | fold change (FC) [15] | fold change (FC) [16] | fold change (FC) [17] | fold change (FC) [18] | fold change (FC) [20] | fold change (FC) [25] | also measured
1 | Cn1cnnc1C(F)(F)[C@](C)(F)c1cccc(N2Cc3c(cc(C(=O)N4CC[C@H](O)C4)cc3C(F)(F)F)C2=O)c1 | 2.01 | 1.01 | 1.51 | <=1 | 1.01 | 1.01 | 1.201 | 1.01 | 1.31 | < 100 | <=1.4 | <=1.4 | <=2 | <=1.5 | 1.01 | <=1.4 | 1.01 | 1.51 | <=2 | 2.51 | fold change (FC) [19]: <=1; fold change (FC) [21]: 1.01; fold change (FC) [22]: <=1; fold change (FC) [23]: <=1; fold change (FC) [24]: 1.01; fold change (FC) [26]: <=1
2 | C[C@H](Cc1nncn1C)c1cccc(N2Cc3c(cccc3C(F)(F)F)C2=O)c1.Cl | 1.51 | <=1 | <=1.5 | 1.01 | 1.01 | <=1 | 1.201 | 1.01 | >=1.76 | < 100 | 1.41 | <=1.4 | <=2 | <=1.5 | 1.01 | <=1.4 | 1.51 | <=1.5 | <=2 | 2.51 | fold change (FC) [27]: <1; fold change (FC) [28]: 1; fold change (FC) [19]: <=1; fold change (FC) [21]: <=1; fold change (FC) [22]: 1.01; fold change (FC) [23]: <=1; fold change (FC) [24]: >=5; fold change (FC) [26]: 1.01
3 | Cc1cc(C(=O)Nc2cccc([C@H](C)Cc3nncn3C)c2)nc(C2CC2)n1 | >4 | >=5 | 1.51 | 2.01 | 2.01 | 2.01 | 1.201 | 2.01 | >=1.76 | < 100 | >1.61 | >1.61 | <=2 | 2.01 | 5 | 1.41 | >=1.76 | >4 | <=2 | >=7.5 | fold change (FC) [29]: 1; Kd [30]: < 100 nM; fold change (FC) [31]: 1.51; fold change (FC) [32]: 1; fold change (FC) [33]: 1; fold change (FC) [34]: 1; fold change (FC) [19]: 1.01; fold change (FC) [21]: 2.01; fold change (FC) [22]: 2.01; fold change (FC) [23]: 2.01; fold change (FC) [24]: >=5; fold change (FC) [35]: 1; fold change (FC) [26]: 2.01
4 | Cn1cnnc1CC1(c2cccc(N3Cc4c(cc(CN5CCC6(CC6)C5)cc4C(F)(F)F)C3=O)c2)COC1 | >4 |  | 2.01 |  |  |  | 1.201 | 2.01 |  | < 100 | >1.61 | 1.41 | >3 | 2.01 | >=7.5 | <=1.4 | 1.31 | >4 | >4 | >=7.5 | fold change (FC) [29]: 1; fold change (FC) [27]: 1; fold change (FC) [31]: 2.01; fold change (FC) [28]: 1; fold change (FC) [32]: 1; fold change (FC) [33]: 1; fold change (FC) [34]: 1.51; fold change (FC) [35]: 1
5 | Cc1cc(C(=O)Nc2cccc(C3(Cc4nncn4C)COC3)c2)nc(C2CC2)n1 | >4 |  | 1.51 |  |  |  | 1.201 | 2.01 | 1.51 | < 100 | <=1.4 | >1.61 | <=2 | 2.01 | 5 | 1.41 | >=1.76 | 2.01 | >4 | >=7.5 | fold change (FC) [29]: 1; fold change (FC) [27]: 1; Kd [30]: < 100 nM; fold change (FC) [31]: 1.51; fold change (FC) [28]: 1; fold change (FC) [32]: 1; fold change (FC) [33]: 1; fold change (FC) [34]: 1.51; fold change (FC) [35]: 1
6 | C[C@H](Cc1nncn1C)c1cccc(N2Cc3c(cc(CN4CC[C@H](F)C4)cc3C(F)(F)F)C2=O)c1 | >4 | >=5 | 1.51 | 2.01 | 1.01 | 2.01 | 1.201 | 2.01 | 1.31 | < 100 | >1.61 | >1.61 | 2.01 | 2.01 | 5 | >1.61 | 1.31 | >4 | >4 | >=7.5 | Kd [30]: < 100 nM; fold change (FC) [19]: 1.01; fold change (FC) [21]: 2.01; fold change (FC) [22]: 1.01; fold change (FC) [23]: 1.01; fold change (FC) [24]: >=5; fold change (FC) [26]: 2.01

— ChEMBL document CHEMBL5050844 (2019)
